Marks after values point to notes of the source that are not given here.
Each compound was assayed against recombinant human S1P1 receptor (Homo sapiens, UniProt P21453) (assay: GTPγS assay to determine EC50 values). Details: 35S-GTPγS binding, membrane preparations of CHO cells expressing recombinant human S1P1 receptor, agonistic activity.
Format: biochemical
Method: GTPγS binding assays are performed in 96 well microtiter plates (Nunc, 442587) in a final volume of 200 μl, using membrane preparations of CHO cells expressing recombinant human S1P1 receptor. Assay conditions are 20 mM Hepes (Fluka, 54461), 100 mM NaCl (Fluka, 71378), 5 mM MgCl2 (Fluka, 63064), 0.1% BSA (Calbiochem, 126609), 1 μM GDP (Sigma, G-7127), 2.5% DMSO (Fluka, 41644), […] ^35S-GTPγS (Amersham Biosciences, SJ1320). The pH is 7.4. Test compounds are dissolved and diluted in 100% DMSO and pre-incubated at room temperature for 30 min in 150 μl of the above assay buffer, in the absence of ^35S-GTPγS. After addition of 50 μl of ^35S-GTPγS, the assay is incubated for 1 h at rt. The assay is terminated by transfer of the reaction mixture to a Multiscreen plate (Millipore, MAHFC1H60) using a cell harvester from Packard Biosciences, and the plates are washed with ice-cold 10 mM Na2HPO4/NaH2PO4 (70%/30%), dried, sealed at the bottom and, after addition of 25 μl MicroScint20 (Packard Biosciences, order #6013621), sealed on the top. Membrane-bound ^35S-GTPγS is measured with a TopCount from Packard Biosciences.
EC50 is the concentration of agonist inducing 50% of the maximal specific ^35S-GTPγS binding. Specific binding is determined by subtracting non-specific binding from maximal binding. Maximal binding is the amount of cpm bound to the Multiscreen plate in the presence of 10 μM of S1P. Non-specific binding is the amount of binding in the absence of an agonist in the assay.

recombinant human S1P1 receptor, sequence (P21453 whole entry): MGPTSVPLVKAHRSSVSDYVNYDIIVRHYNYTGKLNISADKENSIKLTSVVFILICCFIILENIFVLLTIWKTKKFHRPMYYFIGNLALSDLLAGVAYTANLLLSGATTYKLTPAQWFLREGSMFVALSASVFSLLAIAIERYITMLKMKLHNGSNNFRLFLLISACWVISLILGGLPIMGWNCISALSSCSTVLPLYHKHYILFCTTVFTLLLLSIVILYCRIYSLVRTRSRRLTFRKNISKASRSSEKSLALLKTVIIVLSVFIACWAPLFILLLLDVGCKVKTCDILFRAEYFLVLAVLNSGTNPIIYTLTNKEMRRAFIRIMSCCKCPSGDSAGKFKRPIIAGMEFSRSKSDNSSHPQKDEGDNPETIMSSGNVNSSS

EC50	SMILES
2.7 nM	COc1cc(CC(C)C)nc(-c2nc(-c3cc(C)c(OC[C@@H](O)CNC(=O)CO)c(C)c3)no2)c1 [Example 10]
2.3 nM	CCc1cc(-c2noc(-c3cc(OC)cc(CC(C)C)n3)n2)cc(C)c1OC[C@@H](O)CNC(=O)CO [Example 17, N—((S)-3-{2-ethyl-4-[5-(6-isobutyl-4-methoxy-pyridin-2-yl)-[1,2,4]oxadiazol-3-yl]-6-methyl-phenoxy}-2-hydroxy-propyl)-2-hydroxy-acetamide]
7.2 nM	CCc1cc(-c2noc(-c3cc(C)c(CC(C)C)cn3)n2)cc(C)c1OC[C@H](O)CO [Example 33, (R)-3-{2-ethyl-4-[5-(5-isobutyl-4-methyl-pyridin-2-yl)-[1,2,4]oxadiazol-3-yl]-6-methyl-phenoxy}-propane-1,2-diol]
9.1 nM	CCc1cc(-c2noc(-c3cc(C)c(CC(C)C)cn3)n2)cc(C)c1OC[C@@H](O)CO [Example 34, (S)-3-{2-ethyl-4-[5-(5-isobutyl-4-methyl-pyridin-2-yl)-[1,2,4]oxadiazol-3-yl]-6-methyl-phenoxy}-propane-1,2-diol]
3.3 nM	CCc1cc(-c2noc(-c3cc(C)c(CC(C)C)cn3)n2)cc(C)c1CCC(=O)NCCC(=O)O [Example 40, 3-(3-{2-Ethyl-4-[5-(5-isobutyl-4-methyl-pyridin-2-yl)-[1,2,4]oxadiazol-3-yl]-6-methyl-phenyl}-propionylamino)-propionic acid]
5.1 nM	CCc1cc(-c2noc(-c3cc(C)c(CC(C)C)cn3)n2)cc(C)c1OCCNCCC(=O)O [Example 50, 3-(2-{2-Ethyl-4-[5-(5-isobutyl-4-methyl-pyridin-2-yl)-[1,2,4]oxadiazol-3-yl]-6-methyl-phenoxy}-ethylamino)-propionic acid]
8.8 nM	CCc1cc(-c2noc(-c3cc(C)c(CC(C)C)cn3)n2)cc(C)c1OCCNC(=O)CO [Example 51, N-(2-{2-Ethyl-4-[5-(5-isobutyl-4-methyl-pyridin-2-yl)-[1,2,4]oxadiazol-3-yl]-6-methyl-phenoxy}-ethyl)-2-hydroxy-acetamide]
4.7 nM	CCc1cc(-c2noc(-c3cc(C)c(CC(C)C)cn3)n2)cc(C)c1OC(CO)CO [Example 55, 2-{2-Ethyl-4-[5-(5-isobutyl-4-methyl-pyridin-2-yl)-[1,2,4]oxadiazol-3-yl]-6-methyl-phenoxy}-propane-1,3-diol]
11.2 nM	CCc1cc(-c2noc(-c3cc(C)c(CC(C)C)cn3)n2)cc(C)c1OC[C@@H](O)CNCCO [Example 58, 1-{2-Ethyl-4-[5-(5-isobutyl-4-methyl-pyridin-2-yl)-[1,2,4]oxadiazol-3-yl]-6-methyl-phenoxy}-3-((2S)-2-hydroxy-ethylamino)-propan-2-ol]
11.9 nM	CCc1cc(-c2noc(-c3cc(C)c(CC(C)C)cn3)n2)cc(C)c1OC[C@@H](O)CNS(=O)(=O)CC [Example 59, Ethanesulfonic acid ((2S)-3-{2-ethyl-4-[5-(5-isobutyl-4-methyl-pyridin-2-yl)-[1,2,4]oxadiazol-3-yl]-6-methyl-phenoxy}-2-hydroxy-propyl)-amide]
2.3 nM	CCc1cc(-c2noc(-c3cc(C)c(CC(C)C)cn3)n2)cc(C)c1OC[C@@H](O)CNCCC(=O)O [Example 61, 3-((2S)-3-{2-Ethyl-4-[5-(5-isobutyl-4-methyl-pyridin-2-yl)-[1,2,4]oxadiazol-3-yl]-6-methyl-phenoxy}-2-hydroxy-propylamino)-propionic acid]
2.2 nM	CCc1cc(-c2noc(-c3cc(C)cc(C(CC)CC)n3)n2)cc(C)c1OC[C@@H](O)CO [Example 62, (S)-3-(2-Ethyl-4-{5-[6-(1-ethyl-propyl)-4-methyl-pyridin-2-yl]-[1,2,4]oxadiazol-3-yl}-6-methyl-phenoxy)-propane-1,2-diol]
9.4 nM	CCC(CC)c1cc(OC)cc(-c2nc(-c3cc(C)c(OC[C@@H](O)CO)c(Cl)c3)no2)n1 [Example 65, (S)-3-(2-chloro-4-{5-[6-(1-ethyl-propyl)-4-methoxy-pyridin-2-yl]-[1,2,4]oxadiazol-3-yl}-6-methyl-phenoxy)-propane-1,2-diol]
3.1 nM	CCc1cc(-c2noc(-c3cc(OC)cc(C(CC)CC)n3)n2)cc(C)c1OC[C@@H](O)CNC(=O)CO [Example 69, N—[(S)-3-(2-ethyl-4-{5-[6-(1-ethyl-propyl)-4-methoxy-pyridin-2-yl]-[1,2,4]oxadiazol-3-yl}-6-methyl-phenoxy)-2-hydroxy-propyl]-2-hydroxy-acetamide]
2.8 nM	CCC(CC)c1cc(OC)cc(-c2nc(-c3cc(C)c(OC[C@@H](O)CNC(=O)CO)c(C)c3)no2)n1 [Example 70, N—[(S)-3-(4-{5-[6-(1-ethyl-propyl)-4-methoxy-pyridin-2-yl]-[1,2,4]oxadiazol-3-yl}-2,6-dimethyl-phenoxy)-2-hydroxy-propyl]-2-hydroxy-acetamide]
0.8 nM	CCC(CC)c1cc(OC)cc(-c2nc(-c3cc(C)c(OC[C@@H](O)CNC(=O)CO)c(Cl)c3)no2)n1 [Example 71, N—[(S)-3-(2-chloro-4-{5-[6-(1-ethyl-propyl)-4-methoxy-pyridin-2-yl]-[1,2,4]oxadiazol-3-yl}-6-methyl-phenoxy)-2-hydroxy-propyl]-2-hydroxy-acetamide]
8.8 nM	CCC(CC)c1cc(OC)cc(-c2nc(-c3cc(C)c(OC[C@@H](O)CNC(=O)CO)c(OC)c3)no2)n1 [Example 72, N—[(S)-3-(4-{5-[6-(1-ethyl-propyl)-4-methoxy-pyridin-2-yl]-[1,2,4]oxadiazol-3-yl}-2-methoxy-6-methyl-phenoxy)-2-hydroxy-propyl]-2-hydroxy-acetamide]
9 nM	CCc1cc(-c2nc(-c3cc(C)c(CC(C)C)cn3)no2)cc(C)c1OC[C@@H](O)CNC(=O)CO [Example 74, N-((2S)-3-{2-Ethyl-4-[3-(5-isobutyl-4-methyl-pyridin-2-yl)-[1,2,4]oxadiazol-5-yl]-6-methyl-phenoxy}-2-hydroxy-propyl)-2-hydroxy-acetamide]

Same assay, conditions: 35S-GTPγS binding, membranes of CHO cells expressing recombinant human S1P1 receptor

EC50	SMILES
> 10000 nM	CCc1cc(-c2nnc(-c3cc(C)c(CC(C)C)cn3)o2)cc(C)c1OC[C@@H](O)CN [Example 43]

The compounds below were run on circulating lymphocytes (assay: Assessment of in vivo efficacy: circulating lymphocytes after oral administration). Details: 3 h after administration; oral 10 mg/kg, male Wistar rats, compared to vehicle group.
Set-up: species or system normotensive male Wistar rats
Method: The efficacy of the compounds of Formula (I) is assessed by measuring the circulating lymphocytes after oral administration of 3 to 30 mg/kg of a compound of Formula (I) to normotensive male Wistar rats. The animals are housed in climate-controlled conditions with a 12 h-light/dark cycle, and have free access to normal rat chow and drinking water. Blood is collected before and 3, 6 and 24 h after drug administration. Full blood is subjected to hematology using Advia Hematology system (Bayer Diagnostics, Zürich, Switzerland).
All data are presented as mean±SEM. Statistical analyses are performed by analysis of variance (ANOVA) using Statistica (StatSoft) and the Student-Newman-Keuls procedure for multiple comparisons. The null hypothesis is rejected when p<0.05.
Lymphocyte counts 6 h after oral administration have been measured for 7 of the exemplified compounds (Table 2) and are in the range of −35% to −74% with an average of −64%.

SMILES	Lymphocyte counts
CCc1cc(-c2noc(-c3cc(C)c(CC(C)C)cn3)n2)cc(C)c1OC(CO)CO [Example 55, 2-{2-Ethyl-4-[5-(5-isobutyl-4-methyl-pyridin-2-yl)-[1,2,4]oxadiazol-3-yl]-6-methyl-phenoxy}-propane-1,3-diol]	−65%*

Same assay, conditions: 6 h after oral administration of 10 mg/kg to male Wistar rats, compared to vehicle group

SMILES	Lymphocyte counts
CCc1cc(-c2noc(-c3cc(C)cc(CC(C)C)n3)n2)cc(C)c1OC[C@@H](O)CNC(=O)CO [Example 1, N—((S)-3-{2-Ethyl-4-[5-(6-isobutyl-4-methyl-pyridin-2-yl)-[1,2,4]oxadiazol-3-yl]-6-methyl-phenoxy}-2-hydroxy-propyl)-2-hydroxy-acetamide]	−74%
CCc1cc(-c2noc(-c3cc(CC(C)C)cc(C)n3)n2)cc(C)c1OC[C@@H](O)CNC(=O)CO [Example 5, N—((S)-3-{2-Ethyl-4-[5-(4-isobutyl-6-methyl-pyridin-2-yl)-[1,2,4]oxadiazol-3-yl]-6-methyl-phenoxy}-2-hydroxy-propyl)-2-hydroxy-acetamide]	−67%
CCc1cc(-c2noc(-c3cc(OC)cc(CC(C)C)n3)n2)cc(C)c1OC[C@@H](O)CNC(=O)CO [Example 17, N—((S)-3-{2-ethyl-4-[5-(6-isobutyl-4-methoxy-pyridin-2-yl)-[1,2,4]oxadiazol-3-yl]-6-methyl-phenoxy}-2-hydroxy-propyl)-2-hydroxy-acetamide]	−66%
CCc1cc(-c2noc(-c3cc(C)c(CC(C)C)cn3)n2)cc(C)c1OC[C@@H](O)CO [Example 34, (S)-3-{2-ethyl-4-[5-(5-isobutyl-4-methyl-pyridin-2-yl)-[1,2,4]oxadiazol-3-yl]-6-methyl-phenoxy}-propane-1,2-diol]	−70%
CCc1cc(-c2noc(-c3cc(C)c(CC(C)C)cn3)n2)cc(C)c1OC[C@@H](O)CNC(=O)CO [Example 36, N—((S)-3-{2-ethyl-4-[5-(5-isobutyl-4-methyl-pyridin-2-yl)-[1,2,4]oxadiazol-3-yl]-6-methyl-phenoxy}-2-hydroxy-propyl)-2-hydroxy-acetamide]	−74%
CCc1cc(-c2noc(-c3cc(C)c(CC(C)C)cn3)n2)cc(C)c1CCC(=O)NCCC(=O)O [Example 40, 3-(3-{2-Ethyl-4-[5-(5-isobutyl-4-methyl-pyridin-2-yl)-[1,2,4]oxadiazol-3-yl]-6-methyl-phenyl}-propionylamino)-propionic acid]	−35%
